The values that follow are results of earlier work, collected in US11731951B1, “Water reactivity with natural products” (King Faisal University, priority 2023, dated 2023).

The series deals with Gram-positive bacteria, including multi-resistant and vancomycin-resistant strains. The conditions noted are these: from "Abyssomicins—A 20-Year Retrospective View".

In the case of `C[C@@H]1C[C@H](C)C(=O)/C=C/C2[C@@H](O)[C@H]3OC4=C(C(=O)O[C@@]42C[C@H]3C)C1=O` [abyssomicin C], the antibiotic activity entry is listed as “high antibiotic activity”.

On to `CC1CC(C)C(=O)C2=C3OC4C(C)CC3(OC2=O)C(/C=C\C1=O)C4O` (centres unmarked) [atrop-abyssomicin C], for which the antibiotic activity result is “high antibiotic activity”.
